The record followed here is patent US20230033285A1, “Protease Inhibitors for Treatment of Coronavirus Infections” (The Scripps Research Institute, priority 2021, published 2023).

The subject of this experiment is SARS-CoV-2. Nature of the experiment: microbe, parasite or virus in culture. It is filed as cell-based. As to conditions: read-out: EC50, μM (Hela).
[1] abbreviates: Severe acute respiratory syndrome coronavirus 2, HeLa-ACE2 cells infected with SARS-CoV-2, 24 h, immunofluorescence of infected cells.
The mark [2] stands for this setting: Severe acute respiratory syndrome coronavirus 2, HeLa-ACE2, 24 h.

The structures appear in SMILES notation. Where two headings read alike, the source gives them in different places.

By EC50 is commonly meant the concentration at which the effect is half-maximal. With `CC(C)C[C@H](NC(=O)C(=O)NC(C)(C)C)C(=O)N[C@@H](C[C@@H]1CCCNC1=O)C(=O)CO` [Compound 115, N^1-(tert-butyl)-N^2-((S)-1-(((S)-4-hydroxy-3-oxo-1-((S)-2-oxopiperidin-3-yl)butan-2-yl)amino)-4-methyl-1-oxopentan-2-yl)oxalamide], the EC50 under setting [1] was > 1 µM.
Same read-out and setting: the value for `O=C(Nc1ccccc1F)C(=O)N1C[C@@H]2CCC[C@@H]2[C@H]1C(=O)N[C@@H](C[C@@H]1CCCNC1=O)C(=O)CO` [Compound 33, (1S,3aR,6aS)-2-(2-((2-fluorophenyl)amino)-2-oxoacetyl)-N-((S)-4-hydroxy-3-oxo-1-((S)-2-oxopiperidin-3-yl)butan-2-yl)octahydrocyclopenta[c]pyrrole-1-carboxamide] was 0.05 to 0.2 µM.
Still for that read-out and setting: the value for `CC(C)C[C@H](NC(=O)C(=O)Nc1ccccc1)C(=O)N[C@@H](C[C@@H]1CCNC1=O)C(=O)CO` [Compound 2, N^1-((S)-1-(((S)-4-hydroxy-3-oxo-1-((S)-2-oxopyrrolidin-3-yl)butan-2-yl)amino)-4-methyl-1-oxopentan-2-yl)-N^2-phenyloxalamide] was > 1 µM.
Consider `CC1(C)[C@@H]2[C@@H](C(=O)N[C@H](C#N)C[C@@H]3CCCNC3=O)N(C(=O)[C@@H](NC(=O)C(F)(F)F)C3CCOCC3)C[C@@H]21` [Compound 68, (1R,2S,5S)-N-((S)-1-cyano-2-((S)-2-oxopiperidin-3-yl)ethyl)-6,6-dimethyl-3-((S)-2-(tetrahydro-2H-pyran-4-yl)-2-(2,2,2-trifluoroacetamido)acetyl)-3-azabicyclo[3.1.0]hexane-2-carboxamide], for which, under setting [2], the EC50 is > 1 µM.
The same measure, in the same setting: the value for `CC(C)C[C@H](NC(=O)C(=O)NC1CCCCC1)C(=O)N[C@@H](C[C@@H]1CCNC1=O)C(=O)CO` [Compound 14, N^1-cyclohexyl-N^2-((S)-1-(((S)-4-hydroxy-3-oxo-1-((S)-2-oxopyrrolidin-3-yl)butan-2-yl)amino)-4-methyl-1-oxopentan-2-yl)oxalamide] was > 1 µM.
`O=C(N[C@@H](CC1CC1)C(=O)N[C@@H](C[C@@H]1CCCNC1=O)C(=O)CO)C(=O)NC12CCC(F)(CC1)CC2` [Compound 110, N^1-((S)-3-cyclopropyl-1-(((S)-4-hydroxy-3-oxo-1-((S)-2-oxopiperidin-3-yl)butan-2-yl)amino)-1-oxopropan-2-yl)-N^2-(4-fluorobicyclo[2.2.2]octan-1-yl)oxalamide]: the EC50 under setting [1] is > 1 µM.
As to `N#C[C@H](C[C@@H]1CCCNC1=O)NC(=O)[C@@H]1[C@H]2CCC[C@H]2CN1C(=O)C(=O)Nc1ccccc1F` [Compound 60, (1S,3aR,6aS)-N-((S)-1-cyano-2-((S)-2-oxopiperidin-3-yl)ethyl)-2-(2-((2-fluorophenyl)amino)-2-oxoacetyl)octahydrocyclopenta[c] pyrrole-1-carboxamide], the EC50 under setting [1] fell in the range of 0.5 to 1 µM.
The same measure, in the same setting: the value for `CC(=O)OCC(=O)[C@H](C[C@@H]1CCNC1=O)NC(=O)[C@H](CC(C)C)NC(=O)C(=O)Nc1ccccc1F` [Compound 106, (S)-3-((S)-2-(2-((2-fluorophenyl)amino)-2-oxoacetamido)-4-methylpentanamido)-2-oxo-4-((S)-2-oxopyrrolidin-3-yl)butyl acetate] was 0.05 to 0.2 µM; that for `N#C[C@H](C[C@@H]1CCNC1=O)NC(=O)[C@@H]1CC2(CC2)CN1C(=O)C(=O)Nc1ccccc1F` [Compound 64, (S)-N-((S)-1-cyano-2-((S)-2-oxopyrrolidin-3-yl)ethyl)-5-(2-((2-fluorophenyl)amino)-2-oxoacetyl)-5-azaspiro[2.4]heptane-6-carboxamide] was > 1 µM; that for `CC1(C[C@H](NC(=O)C(=O)NC23CC(F)(C2)C3)C(=O)N[C@@H](C[C@@H]2CCNC2=O)C(=O)CO)CCC1` [Compound 97, N^1-(3-fluorobicyclo[1.1.1]pentan-1-yl)-N^2-((S)-1-(((S)-4-hydroxy-3-oxo-1-((S)-2-oxopyrrolidin-3-yl)butan-2-yl)amino)-3-(1-methylcyclobutyl)-1-oxopropan-2-yl)oxalamide] was 0.05 to 0.2 µM.
The same measure, in the same setting: under `CC(C)C[C@H](NC(=O)C(=O)Nc1ccccc1F)C(=O)N[C@@H](C[C@@H]1CCCCNC1=O)C(=O)CO` [Compound 34, N^1-(2-fluorophenyl)-N^2-((S)-1-(((S)-4-hydroxy-3-oxo-1-((S)-2-oxoazepan-3-yl)butan-2-yl)amino)-4-methyl-1-oxopentan-2-yl)oxalamide] stands > 1 µM.
Same read-out and setting: under `COc1cccc2[nH]c(C(=O)N[C@@H](CC(C)C)C(=O)N[C@@H](C[C@@H]3CCNC3=O)C(=O)CO)cc12` [Compound 1, N-((S)-1-(((S)-4-hydroxy-3-oxo-1-((S)-2-oxopyrrolidin-3-yl)butan-2-yl)amino)-4-methyl-1-oxopentan-2-yl)-4-methoxy-1H-indole-2-carboxamide] stands 0.2 to 0.5 µM.
Turning to `CC(=O)NC(CC(C)C(F)(F)F)C(=O)N1C[C@H]2[C@@H]([C@H]1C(=O)N[C@H](C#N)C[C@@H]1CCCNC1=O)C2(C)C` (stereo partly drawn) [Compound 131, (1R,2S,5S)-3-(2-acetamido-5,5,5-trifluoro-4-methylpentanoyl)-N-((S)-1-cyano-2-((S)-2-oxopiperidin-3-yl)ethyl)-6,6-dimethyl-3-azabicyclo[3.1.0]hexane-2-carboxamide], the concentration giving a half-maximal response (EC50) under setting [1] lay within 0.5 to 1 µM.
As for `CC(C)CC(=O)OCC(=O)[C@H](C[C@@H]1CCNC1=O)NC(=O)[C@H](CC(C)C)NC(=O)C(=O)Nc1ccccc1F` [Compound 103, (S)-3-((S)-2-(2-((2-fluorophenyl)amino)-2-oxoacetamido)-4-methylpentanamido)-2-oxo-4-((S)-2-oxopyrrolidin-3-yl)butyl 3-methylbutanoate], under setting [1], the EC50 fell in the range of 0.05 to 0.2 µM.
On the same count and under the same terms, the value for `CC(C)(C)NC(=O)C(=O)N1C[C@H]2[C@@H]([C@H]1C(=O)N[C@H](C=O)C[C@@H]1CCCNC1=O)C2(C)C` [Compound 46, (1R,2S,5S)-3-(2-(tert-butylamino)-2-oxoacetyl)-6,6-dimethyl-N-((S)-1-oxo-3-((S)-2-oxopiperidin-3-yl)propan-2-yl)-3-azabicyclo[3.1.0]hexane-2-carboxamide] was > 1 µM.
The same measure, in the same setting: the value for `CC(C)CCC(=O)N[C@@H](CC(C)(C)C)C(=O)N[C@H](C#N)C[C@@H]1CCCNC1=O` [Compound 136, (S)-N-((S)-1-cyano-2-((S)-2-oxopiperidin-3-yl)ethyl)-4,4-dimethyl-2-(4-methylpentanamido)pentanamide] was > 1 µM; that for `Cc1ccccc1NC(=O)C(=O)N[C@@H](CC1CC1)C(=O)N[C@@H](C[C@@H]1CCCNC1=O)C(=O)CO` [Compound 88, N^1-((S)-3-cyclopropyl-1-(((S)-4-hydroxy-3-oxo-1-((S)-2-oxopiperidin-3-yl)butan-2-yl)amino)-1-oxopropan-2-yl)-N^2-(o-tolyl)oxalamide] was < 0.05 µM; that for `CC(C)(C)C[C@H](NC(=O)C(=O)NC(C)(C)C)C(=O)N[C@@H](C[C@@H]1CCCNC1=O)C(=O)CO` [Compound 89, N^1-(tert-butyl)-N^2-((S)-1-(((S)-4-hydroxy-3-oxo-1-((S)-2-oxopiperidin-3-yl)butan-2-yl)amino)-4,4-dimethyl-1-oxopentan-2-yl)oxalamide] was 0.05 to 0.2 µM.
Same read-out and setting: under `CCCCCCCCCCCCCCC(=O)OCC(=O)[C@H](C[C@@H]1CCNC1=O)NC(=O)[C@H](CC(C)C)NC(=O)c1cc2c(OC)cccc2[nH]1` [Compound 137, (S)-3-((S)-2-(4-methoxy-1H-indole-2-carboxamido)-4-methylpentanamido)-2-oxo-4-((S)-2-oxopyrrolidin-3-yl)butyl pentadecanoate] stands 0.2 to 0.5 µM.
